Test results taken from the supplement of paper PMC8671470.

Columns and labels:
Assay in all cases: area under dose-response curve (viability, 1 nM-10 uM) (fraction (0-1)); higher = more sensitive
Details in all cases: 72 h
[1] = test system: myeloid leukemia patient primary cells Pat.13
Protocol: (§1)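 AUC (0–1, higher = more sensitive) of the 5-point dose–response (1 nM–10 µM, 72 h, CellTiter-Glo) in primary AML/CML patient mononuclear cells. 0.030103 is the floor for inactive compounds.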

[2] = test system: myeloid leukemia patient primary cells Pat.9
Protocol: as §1

[3] = test system: myeloid leukemia patient primary cells Pat.3
Protocol: as §1

[4] = test system: myeloid leukemia patient primary cells Pat.15
Protocol: as §1

[5] = test system: myeloid leukemia patient primary cells Pat.12
Protocol: as §1

[6] = test system: myeloid leukemia patient primary cells Pat.2
Protocol: as §1

[7] = test system: myeloid leukemia patient primary cells Pat.4
Protocol: as §1

[8] = test system: myeloid leukemia patient primary cells Pat.11
Protocol: as §1

[9] = test system: myeloid leukemia patient primary cells Pat.10
Protocol: as §1

[10] = test system: myeloid leukemia patient primary cells Pat.5
Protocol: as §1

[11] = test system: myeloid leukemia patient primary cells Pat.1
Protocol: as §1

[12] = test system: myeloid leukemia patient primary cells Pat.8
Protocol: as §1

[13] = test system: myeloid leukemia patient primary cells Pat.14
Protocol: as §1

[14] = test system: myeloid leukemia patient primary cells Pat.6
Protocol: as §1

[15] = test system: myeloid leukemia patient primary cells Pat.7
Protocol: as §1

SMILES	area under dose-response curve [1]	area under dose-response curve [2]	area under dose-response curve [3]	area under dose-response curve [4]	area under dose-response curve [5]	area under dose-response curve [6]	area under dose-response curve [7]	area under dose-response curve [8]	area under dose-response curve [9]	area under dose-response curve [10]	area under dose-response curve [11]	area under dose-response curve [12]	area under dose-response curve [13]	area under dose-response curve [14]	area under dose-response curve [15]
CC12CCC(O)CC1CCC1C2CCC2(C)C(C3=CC(=O)OC3)CCC12O (configuration not stated) [Digitoxigenin]	0.324	0.658	0.601	0.357	0.208	0.27	0.373	0.279	< 0.0301	0.713	0.388	0.391	0.305	0.26	< 0.0301
Cc1noc2c1-c1ccccc1C(c1ccc(Cl)cc1)=N[C@H]2CC(N)=O [CPI-0610]	0.191	0.34	0.378	0.423		0.192	0.423	0.18	0.458	0.74	0.264				0.0768
Sc1ncnc2nc[nH]c12 [6-mercaptopurine]	< 0.0301	0.0529	0.44	< 0.0301	< 0.0301	< 0.0301	< 0.0301	< 0.0301		0.588	< 0.0301	< 0.0301	< 0.0301	< 0.0301	< 0.0301
C[C@]12O[C@H](C[C@]1(O)CO)n1c3ccccc3c3c4c(c5c6ccccc6n2c5c31)CNC4=O [Lestaurtinib]	0.23	0.813	0.363	0.533	0.125	0.232	0.622	0.235	0.124	0.929	0.654	0.211	0.261	0.096	0.191
Nc1ccn([C@@H]2O[C@H](CO)[C@@H](O)[C@@H]2O)c(=O)n1 [Cytarabine]	0.188	0.719	0.647	0.109	0.0325	0.077	0.142	0.0784	0.205	0.85		0.0847	0.152	0.0602	0.418
COc1c(C)c2c(c(O)c1C/C=C(\C)CCC(=O)O)C(=O)OC2 [Mycophenolic acid]			0.0922	< 0.0301	< 0.0301	< 0.0301	0.0528	< 0.0301		< 0.0301	< 0.0301	0.0355	< 0.0301	< 0.0301	< 0.0301
CCN(CC)CCN(Cc1ccc(-c2ccc(C(F)(F)F)cc2)cc1)C(=O)Cn1c(SCc2ccc(F)cc2)nc(=O)c2c1CCC2 [Darapladib]	0.154	0.625	0.211	0.124	0.134	0.143	0.123	0.137	0.104	0.947	0.111	0.117	0.241	0.137	0.502
CCOC(=O)N1c2ccc(C(F)(F)F)cc2[C@@H](N(Cc2cc(C(F)(F)F)cc(C(F)(F)F)c2)C(=O)OC)C[C@H]1CC [Torcetrapib]	0.0668	0.239	0.0719	< 0.0301	< 0.0301	< 0.0301	< 0.0301	< 0.0301	0.212		< 0.0301	< 0.0301	0.0394	0.0345	0.197
CC(Cc1ccc(O)c(O)c1)C(C)Cc1ccc(O)c(O)c1 (configuration not stated) [Masoprocol]	0.0768	0.3	0.299	0.111	0.0847		0.119	< 0.0301	< 0.0301	< 0.0301	0.075	0.186		0.15	0.294
Clc1ccc(COC(Cn2ccnc2)c2ccc(Cl)cc2Cl)cc1 (configuration not stated) [Econazole]		0.439	0.173	< 0.0301	< 0.0301	< 0.0301	< 0.0301	< 0.0301	0.277	0.499	0.0311	< 0.0301	0.138	0.0776	0.202
C[C@H]1O[C@@H](O[C@H]2[C@@H](O)C[C@H](O[C@H]3[C@@H](O)C[C@H](O[C@H]4CC[C@@]5(C)[C@H](CC[C@@H]6[C@@H]5C[C@@H](O)[C@]5(C)[C@@H](C7=CC(=O)OC7)CC[C@]65O)C4)O[C@@H]3C)O[C@@H]2C)C[C@H](O)[C@@H]1O [Digoxin]	0.384	0.609	0.624	0.493	0.275	0.346	0.42	0.471	< 0.0301	0.611	0.348	0.425	0.363	0.328	< 0.0301
